Reference: patent US20240083900A1, “PYRAZOLO[1,5-A]PYRAZINE DERIVATIVES AS BTK INHIBITORS” (BIOGEN MA INC., priority 2020, published 2024)
Read-outs that look alike come from different tables or passages of the source.

Tests used:
[1] = target: BTK (Homo sapiens (Human), UniProt Q06187); test: In Vitro BTK Kinase Assay: Btk-PolyGAT-LS Assay; type: biochemical; details: BTK enzyme 0.25 nM, ATP 10 μM, polyGAT 100 nM, 30 minutes incubation, TRF readout; read-out: IC50
Outline: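 Human BTK activity was measured with final 10 μM ATP and 100 nM polyGAT substrate in pH 7.5 Tris buffer with 10 mM MgCl2, DTT, Triton X-100 and casein.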

[2] = system: CD69 expression on CD19+ B cells in human whole blood stimulated with anti-human IgD; test: In Vitro whole blood CD69 Assay; type: cell-based
[3] = Homo sapiens, B-cell, human heparinized whole blood, anti-human IgD stimulation overnight, percentage of CD19+ B cells expressing CD69, flow cytometry, read-out: IC50
[4] = human heparinized whole blood, anti-human IgD stimulation overnight, percentage of CD19+ B cells expressing CD69, flow cytometry, read-out: IC50

BTK, sequence (Q06187 whole entry): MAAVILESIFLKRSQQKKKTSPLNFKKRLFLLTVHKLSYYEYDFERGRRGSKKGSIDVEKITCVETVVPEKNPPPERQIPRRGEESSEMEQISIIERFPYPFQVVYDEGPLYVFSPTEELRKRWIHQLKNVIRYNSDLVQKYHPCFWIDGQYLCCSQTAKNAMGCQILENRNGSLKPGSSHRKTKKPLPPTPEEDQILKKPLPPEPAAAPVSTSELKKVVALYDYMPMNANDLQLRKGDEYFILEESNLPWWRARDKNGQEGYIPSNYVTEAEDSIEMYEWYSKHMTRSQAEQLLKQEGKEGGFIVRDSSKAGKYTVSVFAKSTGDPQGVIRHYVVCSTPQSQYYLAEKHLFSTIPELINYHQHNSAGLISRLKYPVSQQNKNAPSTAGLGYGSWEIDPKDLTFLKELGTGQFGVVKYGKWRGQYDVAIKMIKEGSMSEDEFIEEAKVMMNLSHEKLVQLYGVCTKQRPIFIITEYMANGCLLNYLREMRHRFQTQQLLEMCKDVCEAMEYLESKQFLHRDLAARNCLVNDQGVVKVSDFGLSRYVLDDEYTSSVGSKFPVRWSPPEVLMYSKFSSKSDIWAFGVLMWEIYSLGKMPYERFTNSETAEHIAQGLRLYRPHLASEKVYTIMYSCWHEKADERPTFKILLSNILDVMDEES

SMILES	IC50 [1]	IC50 [2, 3]	IC50 [2, 4]	IC50 ([2]; Homo sapiens, B-cell)
C=CS(=O)(=O)N1CCC[C@@H](Oc2nc(-c3cnn(C)c3)cn3nccc23)CC1 [Example 28, (R)-6-(1-methyl-1H-pyrazol-4-yl)-4-((1-(vinylsulfonyl)azepan-4-yl)oxy)pyrazolo[1,5-a]pyrazine]	< 1 nM	< 1000 nM	–	–
C#CC(=O)N1CCC[C@@H](Oc2nc(-c3cnn(C)c3)cn3nccc23)CC1 [Example 30, (R)-1-(4-((6-(1-methyl-1H-pyrazol-4-yl)pyrazolo[1,5-a]pyrazin-4-yl)oxy)azepan-1-yl)prop-2-yn-1-one]	< 1 nM	< 1000 nM	–	–
C#CC(=O)N1CCC[C@H](Oc2nc(-c3cnn(C)c3)cn3nccc23)CC1 [Example 31, (S)-1-(4-((6-(1-methyl-1H-pyrazol-4-yl)pyrazolo[1,5-a]pyrazin-4-yl)oxy)azepan-1-yl)prop-2-yn-1-one]	< 1 nM	1000 to 10000 nM	–	–
C=CS(=O)(=O)N1CCC[C@H](Oc2nc(-c3cnn(C)c3)cn3nccc23)CC1 [Example 33, (S)-6-(1-methyl-1H-pyrazol-4-yl)-4-((1-(vinylsulfonyl)azepan-4-yl)oxy)pyrazolo[1,5-a]pyrazine]	1 to 10 nM	1000 to 10000 nM	–	–
C#CC(=O)N1CC[C@@H](Oc2nc(-c3cnn(C)c3)cc3nccn23)C1 [Example 39, (R)-1-(3-((7-(1-methyl-1H-pyrazol-4-yl)imidazo[1,2-c]pyrimidin-5-yl)oxy)pyrrolidin-1-yl)prop-2-yn-1-one]	10 to 1000 nM	1000 to 10000 nM	–	–
C=CC(=O)Nc1cccc(Oc2nc(-c3cnn(C)c3)cc3nccn23)c1 [Example 43]	1 to 10 nM	< 1000 nM	–	–
C=CC(=O)N1CCOC[C@@H](Oc2nc(-c3cnn(C)c3)cn3nccc23)C1 [Example 54, (S)-1-(6-((6-(1-methyl-1H-pyrazol-4-yl)pyrazolo[1,5-a]pyrazin-4-yl)oxy)-1,4-oxazepan-4-yl)prop-2-en-1-one]	1 to 10 nM	> 10000 nM	–	–
C=CC(=O)N1CCCC[C@H](Oc2nc(-c3cnn(C)c3)cn3nccc23)C1 [Example 55, (S)-1-(3-((6-(1-methyl-1H-pyrazol-4-yl)pyrazolo[1,5-a]pyrazin-4-yl)oxy)azepan-1-yl)prop-2-en-1-one]	10 to 1000 nM	> 10000 nM	–	–
C=CC(=O)N1CCCC[C@@H](Oc2nc(-c3cnn(C)c3)cn3nccc23)C1 [Example 56, 1-[(3R)-3-[6-(1-methylpyrazol-4-yl)pyrazolo[1,5-a]pyrazin-4-yl]oxyazepan-1-yl]prop-2-en-1-one]	1 to 10 nM	> 10000 nM	–	–
C=CC(=O)N1CCCC(Oc2nc(-c3cnn(C)c3)cn3ncnc23)CC1 (centres unmarked) [Example 57, 1-(4-((6-(1-methyl-1H-pyrazol-4-yl)-[1,2,4]triazolo[1,5-a]pyrazin-8-yl)oxy)azepan-1-yl)prop-2-en-1-one]	1 to 10 nM	1000 to 10000 nM	–	–
C=CC(=O)N1CCOC[C@H](Oc2nc(-c3cnn(C)c3)cn3nccc23)C1 [Example 58, (R)-1-(6-((6-(1-methyl-1H-pyrazol-4-yl)pyrazolo[1,5-a]pyrazin-4-yl)oxy)-1,4-oxazepan-4-yl)prop-2-en-1-one]	10 to 1000 nM	> 10000 nM	–	–
C=CC(=O)N1CCC[C@@H](Oc2nc(-c3cnn(C)c3)cn3ncc(C#N)c23)CC1 [Example 59, (R)-4-((1-acryloylazepan-4-yl)oxy)-6-(1-methyl-1H-pyrazol-4-yl)pyrazolo[1,5-a]pyrazine-3-carbonitrile]	< 1 nM	< 1000 nM	–	–
C=CC(=O)N(C)[C@H]1C[C@H](Oc2nc(-c3cnn(C)c3)cn3ncc(C)c23)C1 [Example 60, N-methyl-N-((trans)-3-((3-methyl-6-(1-methyl-1H-pyrazol-4-yl)pyrazolo[1,5-a]pyrazin-4-yl)oxy)cyclobutyl)acrylamide]	< 1 nM	> 10000 nM	–	–
C=CC(=O)N1CCC[C@@H](Oc2nc(-c3cnn(C)c3)cn3ncc(F)c23)CC1 [Example 61, 1-[(4R)-4-[3-fluoro-6-(1-methylpyrazol-4-yl)pyrazolo[1,5-a]pyrazin-4-yl]oxyazepan-1-yl]prop-2-en-1-one]	< 1 nM	< 1000 nM	–	–
C=CC(=O)N1CCC[C@@H](Oc2nc(-c3cnn(C)c3)cn3ncc(C(F)(F)F)c23)CC1 [Example 62, 1-[(4R)-4-[6-(1-methylpyrazol-4-yl)-3-(trifluoromethyl)pyrazolo[1,5-a]pyrazin-4-yl]oxyazepan-1-yl]prop-2-en-1-one]	1 to 10 nM	1000 to 10000 nM	–	–
C=CC(=O)N(C)[C@H]1C[C@@H](Oc2nc(-c3cnn(C)c3)cn3ncc(F)c23)C1 [Example 63, N-((cis)-3-((3-fluoro-6-(1-methyl-1H-pyrazol-4-yl)pyrazolo[1,5-a]pyrazin-4-yl)oxy)cyclobutyl)-N-methylacrylamide]	< 1 nM	> 10000 nM	–	–

SMILES	IC50 [1]	IC50 [2, 3]	IC50 [2, 4]	IC50 ([2]; Homo sapiens, B-cell)
C=CC(=O)N(C)[C@H]1C[C@H](Oc2nc(-c3cnn(C)c3)cn3ncc(C(F)F)c23)C1 [Example 64, N-((trans)-3-((3-(difluoromethyl)-6-(1-methyl-1H-pyrazol-4-yl)pyrazolo[1,5-a]pyrazin-4-yl)oxy)cyclobutyl)-N-methylacrylamide]	1 to 10 nM	< 1000 nM	–	–
C=CC(=O)N1CCC[C@@H](Oc2cc(-c3cnn(C)c3)cn3nccc23)CC1 [Example 66, 1-[(4R)-4-[6-(1-methylpyrazol-4-yl)pyrazolo[1,5-a]pyridin-4-yl]oxyazepan-1-yl]prop-2-en-1-one]	< 1 nM	< 1000 nM	–	–
C=CC(=O)N1CCC[C@@H](Oc2nc(-c3cnn(C)c3)cn3nc(N)cc23)CC1 [Example 67, 1-[(4R)-4-[2-amino-6-(1-methylpyrazol-4-yl)pyrazolo[1,5-a]pyrazin-4-yl]oxyazepan-1-yl]prop-2-en-1-one]	< 1 nM	< 1000 nM	–	–
C=CC(=O)N1CCC[C@@H](Oc2nc(-c3cn(C)nc3C)cn3ncnc23)CC1 [Example 70, 1-[(4R)-4-[[6-(1,3-dimethylpyrazol-4-yl)-[1,2,4]triazolo[1,5-a]pyrazin-8-yl]oxy]azepan-1-yl]prop-2-en-1-one]	1 to 10 nM	1000 to 10000 nM	–	–
C=CC(=O)N1CCOCC1CCOc1cc(-c2cnn(C)c2)cn2nccc12 (centres unmarked) [Example 81, 1-(3-(2-((6-(1-methyl-1H-pyrazol-4-yl)pyrazolo[1,5-a]pyridin-4-yl)oxy)ethyl)morpholino)prop-2-en-1-one]	1 to 10 nM	1000 to 10000 nM	–	–
CC#CC(=O)N1CC2(C1)CC(C)(Oc1nc(-c3cnn(C)c3)cn3ncc(F)c13)C2 [Example 86, 1-(6-((3-fluoro-6-(1-methyl-1H-pyrazol-4-yl)pyrazolo[1,5-a]pyrazin-4-yl)oxy)-6-methyl-2-azaspiro[3.3]heptan-2-yl)but-2-yn-1-one]	1 to 10 nM	< 1000 nM	–	–
CC#CC(=O)N(C)[C@H]1CCC[C@@H](Oc2nc(-c3cnn(C)c3)cn3ncc(F)c23)C1 [Example 92, N-((1S,3R)-3-((3-fluoro-6-(1-methyl-H-pyrazol-4-yl)pyrazolo[1,5-a]pyrazin-4-yl)oxy)cyclohexyl)-N-methylbut-2-ynamide]	< 1 nM	1000 to 10000 nM	–	–
CN(C)C/C=C/C(=O)N(C)[C@H]1CCC[C@@H](Oc2nc(-c3cnn(C)c3)cn3ncc(F)c23)C1 [Example 93, (E)-4-(dimethylamino)-N-((1S,3R)-3-((3-fluoro-6-(1-methyl-1H-pyrazol-4-yl)pyrazolo[1,5-a]pyrazin-4-yl)oxy)cyclohexyl)-N-methylbut-2-enamide]	1 to 10 nM	< 1000 nM	–	–
CC#CC(=O)N[C@H]1CC[C@@H](Oc2nc(-c3cnn(C)c3)cn3ncc(F)c23)C1 [Example 95, N-((1S,3R)-3-((3-fluoro-6-(1-methyl-1H-pyrazol-4-yl)pyrazolo[1,5-a]pyrazin-4-yl)oxy)cyclopentyl) but-2-ynamide]	< 1 nM	< 1000 nM	–	–
C=CC(=O)NC12CCC(Oc3nc(-c4cnn(C)c4)cn4nccc34)(C1)C2 [Example 98, N-(4-((6-(1-methyl-1H-pyrazol-4-yl)pyrazolo[1,5-a]pyrazin-4-yl)oxy)bicyclo[2.1.1]hexan-1-yl)acrylamide]	< 1 nM	1000 to 10000 nM	–	–
CC#CC(=O)N(C)C12COCC(Oc3nc(-c4cnn(C)c4)cn4nccc34)(C1)C2 [Example 100, N-methyl-N-(5-((6-(1-methyl-1H-pyrazol-4-yl)pyrazolo[1,5-a]pyrazin-4-yl)oxy)-3-oxabicyclo[3.1.1]heptan-1-yl)but-2-ynamide]	< 1 nM	< 1000 nM	–	–
C=CC(=O)N(C1CC1)[C@H]1C[C@@H](Oc2nc(-c3cnn(C)c3)cn3nccc23)C1 [Example 101, N-cyclopropyl-N-((cis)-3-((6-(1-methyl-1H-pyrazol-4-yl)pyrazolo[1,5-a]pyrazin-4-yl)oxy)cyclobutyl)acrylamide]	< 1 nM	1000 to 10000 nM	–	–
C=CC(=O)N(C)[C@H]1C[C@](Oc2nc(-c3cnn(C)c3)cn3nccc23)(C2CC2)C1 [Example 103, N-((1s,3s)-3-cyclopropyl-3-((6-(1-methyl-1H-pyrazol-4-yl)pyrazolo[1,5-a]pyrazin-4-yl)oxy)cyclobutyl)-N-methylacrylamide]	1 to 10 nM	–	1000 to 10000 nM	–
C=CC(=O)N(C)[C@H]1C[C@@](Oc2nc(-c3cnn(C)c3)cn3nccc23)(C2CC2)C1 [Example 104, N—((1r,3r)-3-cyclopropyl-3-((6-(1-methyl-1H-pyrazol-4-yl)pyrazolo[1,5-a]pyrazin-4-yl)oxy)cyclobutyl)-N-methylacrylamide]	10 to 1000 nM	–	1000 to 10000 nM	–
C=CC(=O)N1CC2(Oc3nc(-c4cnn(C)c4)cn4nccc34)CC1(C)C2 [Example 124, 1-(1-methyl-4-((6-(1-methyl-1H-pyrazol-4-yl)pyrazolo[1,5-a]pyrazin-4-yl)oxy)-2-azabicyclo[2.1.1]hexan-2-yl)prop-2-en-1-one]	1 to 10 nM	–	–	1000 to 10000 nM
